Values after ≈ are worked out from the molar mass of the structure shown.
Experiments:
[1] = Thermal stability in DMSO-d6 (variable temperature 1H nmr); format: physicochemical; conditions: DMSO-d6, higher temperatures (FIGS. 2d,e); signals attributable to justicidin B appeared
Protocol: Signals of the remaining carbons appeared as sharp single lines. These observations are explained by hindered rotation around the C-1/C-1' axis, resulting in conformational isomers. In order to provide evidence for or disprove this hypotheses, the ^1 H nmr spectra of the glycoside (shown above) were recorded in DMSO-d6 at different temperatures. Table 1 summarizes the chemical shifts observed at 25, 65, 105, 135, and 145° C. […] Room temperature (FIG. 2a) led to a complex coupling pattern that became more easily interpretable when the spectrum was recorded at 65° C. (FIG. 2b). Signals due to H-2', H-5' and H-6' broadened and disappeared when the temperature was raised (FIG. 2c). […] Other protons (not shown in FIG. 2) also appeared as single resonances at higher temperatures.

[2] = system: P388 murine lymphocytic leukemia; assay: Cell growth inhibition against P388 murine lymphocytic leukemia (in vitro PS system), NCI standard protocol; format: cell-based; conditions: Mus musculus, read-out: ED50 (P388 murine lymphocytic leukemia, in vitro PS system)
From the text: Hplc-uv/vis and cell growth inhibition against the P388 murine lymphocytic leukemia (in vitro PS system) were used to guide the isolation of the lignan.

[3] = Stability in solution at room temperature (nmr observation; MeOH solutions stored two days); format: physicochemical

COc1cc2cc(COC(C)=O)c(C(=O)O[C@@H]3O[C@H](CO)[C@@H](O)[C@H](O)[C@H]3O)c(-c3ccc4c(c3)OCO4)c2cc1OC [Phyllanthostatin A]
decomposition at higher temperatures [1]: gradually decomposed
IC50 [2]: 4 µg/mL (≈ 6.82 µM)
justicidin B detected in stored solution ([3]; MeOH solutions, room temperature, two days): Justicidin B was also detected in MeOH solutions of glycoside stored at room temperature for two days
stability in solution ([3]; in solution): unstable in solution

— patent publication US4997817A, “Phyllanthostatin A” (Arizona Board of Reagents, priority 1990, dated 1991)
